In PubChem BioAssay (NCI):
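In this assay, cells in 96-well plates receive the compound at five concentrations for 48 hours. Endpoints are linearly interpolated between the surrounding concentrations. GI50: concentration for 50% inhibition of growth. TGI: total growth inhibition.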

Assays:
Assay in all cases: NCI anticancer screen, dose series, 48 h
SF-268 CNS = system: SF-268 CNS
HCC-2998 colon = system: HCC-2998 colon
OVCAR-3 ovarian = system: OVCAR-3 ovarian
U251 CNS = system: U251 CNS
NCI-H460 lung = system: NCI-H460 lung
K-562 leukemia = system: K-562 leukemia
MALME-3M melanoma = system: MALME-3M melanoma
SK-MEL-2 melanoma = system: SK-MEL-2 melanoma
DU-145 prostate = system: DU-145 prostate
PC-3 prostate = system: PC-3 prostate

SMILES	TGI (SF-268 CNS) [µM]	TGI (HCC-2998 colon) [µM]	TGI (OVCAR-3 ovarian) [µM]	TGI (U251 CNS) [µM]	TGI (NCI-H460 lung) [µM]	TGI (K-562 leukemia) [µM]	TGI (MALME-3M melanoma) [µM]	TGI (SK-MEL-2 melanoma) [µM]	GI50 (SF-268 CNS) [µM]	GI50 (HCC-2998 colon) [µM]	GI50 (DU-145 prostate) [µM]	TGI (DU-145 prostate) [µM]	GI50 (OVCAR-3 ovarian) [µM]	GI50 (U251 CNS) [µM]	GI50 (NCI-H460 lung) [µM]	GI50 (K-562 leukemia) [µM]	GI50 (SK-MEL-2 melanoma) [µM]	GI50 (PC-3 prostate) [µM]	TGI (PC-3 prostate) [µM]	GI50 (MALME-3M melanoma) [µM]
COC(=O)C1=CC2OC1(C)C1(CC1)C2=O (configuration not stated)	43.3	34.2	31.2	> 100	48.4	41.9	27.8													
CC(=O)Nc1ccc(/C=C/C(=O)c2sc(C(N)=S)nc2C)cc1	> 100	> 100	> 100	> 100	> 100	> 100	> 100	> 100												
CC(C)=CCC/C(C)=C/CC/C(=C/COP(=O)(OCc1ccc([N+](=O)[O-])o1)N(C)CCCCCl)C(C)(C)C (configuration not stated)	19.3	2.29	3.66	12	11.5	> 100		11.4	3.69	0.0486	1.61	9	1.94	1.76	5	6.22	2.73	0.43	15.1	
[N-]=[N+]=CC(=O)OCC(N)C(=O)O (configuration not stated)	> 100	> 100	> 100	> 100	16.4		> 100	> 100	1.89	0.556	0.952	> 100	3.73	0.778	1.27		15.9	2.42	> 100	6.56
Cc1ccc(C2=NO[C@@H]3C(=O)N(c4ccc(Cc5ccc(N6C(=O)[C@H]7C(c8ccc(C)cc8)=NO[C@H]7C6=O)cc5)cc4)C(=O)[C@H]23)cc1	> 100	> 100	> 100	> 100	> 100	> 100	> 100	> 100												
O=C(C=Nc1ccccc1C(=O)[O-])c1cccs1.O=C(C=Nc1ccccc1C(=O)[O-])c1cccs1.[Cu+2]	> 100	> 100	> 100	> 100	> 100	> 100	> 100	> 100												
CC[C@H](C)C(=O)O[C@H]1CCC=C2C=C[C@H](C)C(CCC3C[C@@H](O)CC(=O)O3)[C@H]21 (some centres not stated)	> 100	> 100	> 100	> 100	> 100			> 100	1.94	33	74.8	> 100		1.82	4.9		6.98	1.48	> 100	
CC1C2=CC=C(O2)C(C)(C)C2=CC=C(O2)C(C)(C)C2=CC=C(O2)C(C)(C)C2=CC=C1O2	> 100	> 100		> 100	> 100	> 100	> 100	> 100												
CCCCCCCCCC(=O)OCC1OC(n2cc(F)c(=O)[nH]c2=O)C(N)C(OC(=O)CCCCCCCCC)C1O (configuration not stated)	40.2	33.3	32.7	32.3	40.5	36.7	35.2	29.6												
